Test results from patent publication US6596772B1, “Phosphate mimics and methods of treatment using phosphatase inhibitors” (Sugen, Inc., priority 1999, dated 2003).
Like-named read-outs stand apart in the source and are kept apart here.

Experiments:
Assay in all cases: PTP IC50 assay, pNPP or FDP as substrate
Type in all cases: biochemical
[1] = target: T1, PTP MU (Homo sapiens, UniProt P28827)
T1 construct: made in house; host or cells: E. coli BL-21 (pGEX 6P-1)
Protocol: (§1) The following in vitro assay procedure is preferred to determine the level of activity and effect of the different compounds of the present invention on one or more of the PTPs. Similar assays can be designed along the same lines for any PTP using techniques well known in the art.
(§2) The catalytic assays described herein are performed in a 96-well format. The general procedure begins with the determination of PTP optimal pH using a three-component buffer system that minimizes ionic strength variations across a wide range of buffer pH. Next, the Michaelis-Menten constant, or Km, is determined for each specific substrate-PTP system. This Km value is subsequently used as the substrate reaction concentration for compound screening. Finally, the test PTP is exposed to varying concentrations of compound for fifteen minutes and allowed to react with substrate for ten minutes. The results are plotted as percent inhibition versus compound concentration and the IC50 interpolated from the plot.
(§3) All assays were performed using pNPP or FDP as substrate. The optimum pH was determined for each PTP used.
(§4) PTPase activity was assayed at 25° C. in a 100-μl reaction mixture containing an appropriate concentration of pNPP or FDP as substrate. The reaction was initiated by addition of the PTP and quenched after 10 min by addition of 50 μl of IN NaOH. The non-enzymatic hydrolysis of the substrate was corrected by measuring the control without the addition of the enzyme. The amount of p-nitrophenol produced was determined from the absorbance at 410 nm. To determine the kinetic parameter, Km, the initial velocities were measured at various substrate concentrations and the data were fitted to the Michaelis equation where velocity=(Vmax*[S])/(Km+[S]), and [S]=substrate reaction concentration.
(§5) The effect of the compounds on PTP was evaluated at 25° C. using pNPP or FDP as substrate. PTP was pre-incubated for fifteen minutes with various concentrations of compound. Substrate was then added at a fixed concentration (usually equal to the Km previously calculated). After 10 minutes, NaOH was added to stop the reaction. The hydrolysis of pNPP was followed at 410 nm on the Biotek Powerwave 200 microplate scanning spectrophotometer. The percent inhibition was calculated as follows: Percent Inhibition=[(control signal−compound signal)/control signal] ×100%. The IC50 was then determined by interpolation of a percent inhibition versus compound concentration plot.
(§6) Plasmids designed for bacterial GST-PTP fusion protein expression were derived by insertion of PCR-generated human PTP fragments into pGEX vectors (Pharmacia Biotech). Several of these constructs were then used to subclone phosphatases into pFastBac-1for expression in Sf-9 insect cells. Oligonucleotides used for the initial amplification of PTP genes are shown below. The cDNAs were prepared using the Gilbo BRL superscript preamplification system on RNAs purchased from Clontech.
The PTP Mu cDNA was amplified from a human lung cDNA library (Clontech) using the following oligonucleotides; 5′oligo: 5′-[…]-3′ (SEQ ID NO: 18) 3′oligo: 5′-[…]-3′ (SEQ ID NO: 19) It was subsequently ligated into the Eco RI/Xho I sites of pGEX 6P-1.

[2] = target: T2, PTP EPSILON (Homo sapiens, UniProt P23469)
T2 construct: made in house; host or cells: Sf-9 insect cells (pFastBac-G2T); a pGEX 6P-1 construct also existed
Protocol: as §1, §2, §3, §4, §5, §6
The PTPepsilon cDNA was amplified from human placenta single-strand cDNA (Clontech RNA) using the following oligonucleotides: 5′oligo: 5′-[…]-3′ (SEQ ID NO: 6) 3′oligo: 5′-[…]-3′ (SEQ ID NO: 7) After cloning this PCR product into the Bam HI/Xho I sites of pGEX 6P-1, this phosphatase was subcloned using the same restriction sites in pFastBac-G2T.

[3] = target: T3, PTP SIGMA (Homo sapiens, UniProt Q13332)
T3 construct: made in house; host or cells: E. coli BL-21 (pGEX 6P-1)
T3 sequence (Q13332 1320-1660 limits assumed): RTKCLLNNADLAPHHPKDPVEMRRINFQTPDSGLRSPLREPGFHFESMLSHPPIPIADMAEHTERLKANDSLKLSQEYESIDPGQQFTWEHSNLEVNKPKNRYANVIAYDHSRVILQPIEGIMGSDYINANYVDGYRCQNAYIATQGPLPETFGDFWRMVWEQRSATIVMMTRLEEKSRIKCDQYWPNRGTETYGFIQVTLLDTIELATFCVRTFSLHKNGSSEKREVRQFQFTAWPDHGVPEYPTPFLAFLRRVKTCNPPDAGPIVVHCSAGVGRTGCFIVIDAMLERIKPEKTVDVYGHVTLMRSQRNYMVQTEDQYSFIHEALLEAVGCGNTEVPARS
Protocol: as §1, §2, §3, §4, §5, §6
The PTP Sigma cDNA was amplified from human brain single strand cDNA (Clontech RNA) using the following oligonucleotides: 5′oligo: 5′-[…]-3′ (SEQ ID NO: 12) 3′oligo: 5′-[…]-3′ (SEQ ID NO: 13) and subsequently ligated into pGex 6P-1 Eco RI/Xho I sites.

[4] = target: T4, PTP SHP2 (Homo sapiens, UniProt Q06124)
T4 construct: The catalytic domain was amplified using the following oligonucleotides; made in house; host or cells: Sf-9 insect cells (pFastBac-G2T)
T4 sequence (Q06124 247-517 limits assumed): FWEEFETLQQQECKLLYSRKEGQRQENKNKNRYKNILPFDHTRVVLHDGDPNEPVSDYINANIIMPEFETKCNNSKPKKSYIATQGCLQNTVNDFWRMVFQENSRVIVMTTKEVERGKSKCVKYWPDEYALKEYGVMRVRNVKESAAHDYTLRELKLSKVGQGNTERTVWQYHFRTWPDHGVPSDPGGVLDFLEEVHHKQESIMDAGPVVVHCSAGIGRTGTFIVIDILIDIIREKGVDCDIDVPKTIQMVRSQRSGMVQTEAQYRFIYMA
Protocol: as §1, §2, §3, §4, §5, §6
SHP-2 cDNA was used as described earlier (Vogel W., et al.,1993, Science, 259:1611-4). The catalytic domain was amplified using the following oligonucleotides 5′oligo: 5′-[…]-3′ (SEQ ID NO: 2) 3′oligo: 5′-[…]-3′ (SEQ ID NO: 3) and subsequently subcloned into BamH1-Xba-1 sites. It was then ligated into pfas Bac-G2T BamH1-Xba-1 sites.

[5] = pNPP or FDP as substrate, 25° C., read-out: PTP IC50 Mu
[6] = pNPP or FDP as substrate, 25° C., read-out: PTP IC50 Epilson
[7] = pNPP or FDP as substrate, 25° C., read-out: PTP IC50 Sigma
[8] = pNPP or FDP as substrate, 25° C., read-out: PTP IC50 SHP2
[9] = comparison of R groups, read-out: IC50 Mu
[10] = comparison of R groups, read-out: IC50 Epsilon
[11] = comparison of R groups, read-out: IC50 Sigma
[12] = comparison of R groups, read-out: IC50 SHP2

T1 sequence (P28827 831-1186 limits assumed): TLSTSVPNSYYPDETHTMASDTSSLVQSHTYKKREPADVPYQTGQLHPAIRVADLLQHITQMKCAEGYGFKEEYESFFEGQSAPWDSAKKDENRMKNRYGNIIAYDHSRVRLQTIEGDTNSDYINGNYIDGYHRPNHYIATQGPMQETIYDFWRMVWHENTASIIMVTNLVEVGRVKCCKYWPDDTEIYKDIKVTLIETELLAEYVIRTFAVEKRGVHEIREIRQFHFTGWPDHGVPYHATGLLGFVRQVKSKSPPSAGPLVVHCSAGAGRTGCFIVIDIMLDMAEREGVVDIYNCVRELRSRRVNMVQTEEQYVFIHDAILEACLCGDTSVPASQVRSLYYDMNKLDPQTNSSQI
T2 sequence (P23469 80-393 limits assumed): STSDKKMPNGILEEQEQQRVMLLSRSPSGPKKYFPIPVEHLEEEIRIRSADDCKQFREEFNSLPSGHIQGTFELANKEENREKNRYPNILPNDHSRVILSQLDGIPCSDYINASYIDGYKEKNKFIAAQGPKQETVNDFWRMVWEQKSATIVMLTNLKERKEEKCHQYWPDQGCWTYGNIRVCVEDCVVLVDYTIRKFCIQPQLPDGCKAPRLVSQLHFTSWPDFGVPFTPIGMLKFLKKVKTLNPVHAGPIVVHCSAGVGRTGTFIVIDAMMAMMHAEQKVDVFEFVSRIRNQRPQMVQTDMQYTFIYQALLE

| Compound | IC50 [1, 5] | IC50 [2, 6] | IC50 [3, 7] | IC50 [4, 8] | IC50 [1, 9] | IC50 [2, 10] | IC50 [3, 11] | IC50 [4, 12] |
| --- | --- | --- | --- | --- | --- | --- | --- | --- |
| 1-(4-Aminophenoxy)-4-trifluoromethylsulfonamidophenoxy benzene [Example 72] | > 100 µM | 48.3 µM | 41.1 µM | 17 µM | – | – | – | – |
| O=[N+]([O-])c1cc(S(=O)(=O)C(F)(F)F)ccc1OC1CCC(Oc2ccc(S(=O)(=O)C(F)(F)F)cc2[N+](=O)[O-])C1 (mixture of isomers) [Example 12, 1,3-Bis-(2-nitro-4-trifluoromethanesulfonyl-phenoxy)-cyclopentane] | > 100 µM | > 100 µM | 91.7 µM | 79.8 µM | – | – | – | – |
| CS(=O)(=O)Nc1ccc(Oc2ccc(Oc3ccc(NS(C)(=O)=O)cc3)cc2)cc1 [CH3SO2NH—] | – | – | – | – | > 100 µM | 51.4 µM | 22 µM | 33.6 µM |
| O=[N+]([O-])c1cc(S(=O)(=O)C(F)(F)F)ccc1SSc1ccc(S(=O)(=O)C(F)(F)F)cc1[N+](=O)[O-] [Example 8, Bis-(2-nitro-4-trifluoromethylsulfonylphenyl) disulfide] | > 100 µM | 53.7 µM | 27.7 µM | 37 µM | – | – | – | – |
| COC(=O)c1cc(Oc2ccc(S(=O)(=O)C(F)(F)F)cc2)cc(Oc2ccc(S(=O)(=O)C(F)(F)F)cc2)c1 [Example 9, 3,5-Bis-(4-trifluoromethanesulfonyl-phenoxy)-benzoic acid methyl ester] | > 100 µM | > 100 µM | 49.9 µM | > 100 µM | – | – | – | – |
| COC(=O)Cc1cc(Oc2ccc(S(=O)(=O)C(F)(F)F)cc2[N+](=O)[O-])cc(Oc2ccc(S(=O)(=O)C(F)(F)F)cc2[N+](=O)[O-])c1 [Example 10, [3,5-Bis-(2-nitro-4-trifluoromethanesulfonyl-phenoxy)-phenyl]-acetic acid methyl ester] | > 100 µM | 60.8 µM | 33.8 µM | > 100 µM | – | – | – | – |
| COC(=O)c1cc(Oc2ccc(S(=O)(=O)C(F)(F)F)cc2[N+](=O)[O-])cc(Oc2ccc(S(=O)(=O)C(F)(F)F)cc2[N+](=O)[O-])c1 [Example 11, 3,5-Bis-(2-nitro-4-trifluoromethanesulfonyl-phenoxy)-benzoic acid methyl ester] | > 100 µM | 38.7 µM | 24.1 µM | > 100 µM | – | – | – | – |
| COC(=O)c1c(Oc2ccc(S(=O)(=O)C(F)(F)F)cc2[N+](=O)[O-])cc(C)cc1Oc1ccc(S(=O)(=O)C(F)(F)F)cc1[N+](=O)[O-] [Example 13, 4-Methyl-2,6-bis-(2-nitro-4-trifluoromethanesulfonyl-phenoxy)-benzoic acid methyl ester] | 76 µM | 80.4 µM | 84.5 µM | > 100 µM | – | – | – | – |
| COC(=O)c1ccc(OCCOc2ccc(S(=O)(=O)C(F)(F)F)cc2[N+](=O)[O-])cc1 [Example 14, 4-[2-(2-nitro-4-trifluoromethanesulfonyl-phenoxy)-ethoxy]-benzoic acid methyl ester] | > 100 µM | > 100 µM | 6.75 µM | > 100 µM | – | – | – | – |
| O=C(O)c1ccc(Oc2cccc(Oc3ccc(S(=O)(=O)C(F)(F)F)cc3[N+](=O)[O-])c2)cc1 [Example 15, 4-[3-(2-Nitro-4-trifluoromethanesulfonyl-phenoxy)-phenoxy]-benzoic acid] | 15.5 µM | 10 µM | 11.7 µM | 10.7 µM | – | – | – | – |
| COC(=O)c1cc(Oc2ccc(S(=O)(=O)C(F)(F)F)cc2[N+](=O)[O-])n(-c2cc(C(F)(F)F)cc(C(F)(F)F)c2)n1 [Example 16, 1-(3,5-Bis-trifluoromethyl-phenyl)-5-(2-nitro-4-trifluoromethanesulfonyl-phenoxy)-1H-pyrazole-3-carboxylic acid methyl ester] | > 100 µM | 64.7 µM | 29.4 µM | > 100 µM | – | – | – | – |
| CCOC(=O)COc1ccc(S(=O)(=O)c2ccc(Oc3ccc(S(=O)(=O)C(F)(F)F)cc3[N+](=O)[O-])cc2)cc1 [Example 17, {4-[4-(2-Nitro-4-trifluoromethanesulfonyl-phenoxy)-benzenesulfonyl]-phenoxy}-acetic acid ethyl ester] | > 100 µM | > 100 µM | > 100 µM | > 100 µM | – | – | – | – |
| O=S(=O)(Nc1ccc(Oc2ccc(NS(=O)(=O)C(F)(F)F)cc2)cc1)C(F)(F)F [Example 73, Bis(4-trifluoromethylsulfonamidophenyl) ether] | 76.1 µM | 23.1 µM | > 100 µM | > 100 µM | – | – | – | – |
| O=S(=O)(Nc1ccc(Oc2cccc(Oc3ccc(NS(=O)(=O)C(F)(F)F)cc3)c2)cc1)C(F)(F)F [Example 74, 1,3-Bis(4-trifluoromethylsulfonamidophenoxy)benzene] | 3.9 µM | 1.8 µM | 7.6 µM | 2.8 µM | – | – | – | – |
| O=S(=O)(Nc1ccc(-c2nnc(-c3ccc(NS(=O)(=O)C(F)(F)F)cc3)o2)cc1)C(F)(F)F [Example 75, 2,5-Bis(4-trifluoromethylsulfonamidophenyl)-(1,3,4)oxadiazole] | 32.4 µM | 11.5 µM | 13.2 µM | 8 µM | – | – | – | – |
| CC(C)(c1ccc(NS(=O)(=O)C(F)(F)F)cc1)c1ccc(C(C)(C)c2ccc(NS(=O)(=O)C(F)(F)F)cc2)cc1 [Example 76] | 6.7 µM | 8.4 µM | 20 µM | 1.8 µM | – | – | – | – |
| Nc1ccc(Oc2ccc(Oc3ccc(N)cc3)cc2)cc1 [NH2] | – | – | – | – | > 100 µM | > 100 µM | > 100 µM | > 100 µM |
